The results in this text go back to patent publication US9968636B2, “Peritoneal dialysis fluid comprising a GSK-3 inhibitor” (ZYTOPROTEC GMBH, priority 2011, dated 2018).

“Also recorded” adds a separate entry of the source.

For assay [1], the system named is human Met-5a cell line (mesothelial cells). Nature of the assay: Cell viability by neutral red uptake after PD fluid exposure. Particulars: 10 mM LiCl; low pH glucose-based or icodextrin-based PD fluids; 1 h exposure, 16 h recovery; FIG. 3. The procedure:
(§1) The human Met-5a cell line was purchased from American Type Culture Collection (ATCC, Rockville, Md.). All cells were cultured in M199 culture medium supplemented with L-glutamine (0.1 g/L), penicillin (100 U/mL), streptomycin (100 μg/mL), 10% fetal bovine serum (FBS) and propagated at 37° C. in a humidified air containing 5% CO2 incubator. Standard chemicals were purchased from Sigma-Aldrich (St. Louis, Mo., USA) unless otherwise stated. Falcon™ tissue culture plastics (Becton Dickinson, Franklin Lakes, N.J., USA) were used for all cell culture procedures.
(§2) PDF exposure model: confluent cultures on 12-well plates were exposed for the indicated times (30 min or 1 h) to the PD fluid solution or kept in parallel in control medium. For HSF-1 activity assay, cells were harvested and lysed immediately after exposure times, whereas for measurements of LDH and HSP-72, p-GSK-3β Western blot analysis, cells were allowed to recover by incubation with normal culture medium containing 10% FBS for 16 h.
To assess cell viability by neutral red uptake, cells were seeded out to 96-well plates and exposed to different treatment protocols as described before. Neutral red uptake was measured using a standard reagent (Sigma-Aldrich, St. Louis, Mo., USA) according to the manufacturer's protocol.

In the next assay the test system is mesothelial cells. Nature of the assay: Light microscopy and vital-dead (live-dead) staining of mesothelial cells. Conditions: LiCl, low pH glucose-based or icodextrin-based PD fluids, data not shown. The assay is classed as cell-based, human. The procedure: as §2
Assay [2] relates to heat shock factor-1 (HSF-1). Nature of the assay: HSF-1 activity by Luciferase assay (heat shock element reporter). Conditions: 10 mM LiCl; control cells, glucose-based low pH high GDP and low pH icodextrin-based PD fluids; 30 min exposure, 6 h recovery; FIG. 4. The assay is classed as cell-based, human. As to the method:
PDF exposure model: confluent cultures on 12-well plates were exposed for the indicated times (30 min or 1 h) to the PD fluid solution or kept in parallel in control medium. […], whereas for measurements of LDH and HSP-72, p-GSK-3β Western blot analysis, cells were allowed to recover by incubation with normal culture medium containing 10% FBS for 16 h.
To determine the specific binding of the heat shock factor-1 (HSF-1), a commercially available Luciferase Reporter Vector (LR0038, Panomics, Italy) containing the heat shock element [5′[…]3′] as well as an empty control vector were transfected into the MeT-5a cells. 24 h prior to transfection, MC were seeded onto 96-well cell culture plates and allowed to reach approximately 80-90% confluence on day of transfection. Before transfection per well 0.15 μl Fugene6 (Roche) transfection reagent and 0.1 μl HSE reporter vector or control vector were each diluted with 5 μl of normal growth medium without FCS and incubated for 5 min. The solutions were mixed incubated for 30 min. Of this mix 10 μl were added to each well incubated for 24 h at 5% CO2 and 37° C. in a humidified atmosphere. […] The luciferase reagent (E1500, Promega) was added using an automatic pipette in 3 s intervals and the yielded signal was measured after 2 min using a luminometer plate reader (Flx800, BioTek).

The test system of assay [3] is Heat shock protein-72 (HSP-72). As to the kind of experiment: HSP-72 expression by Western blot. The assay is classed as cell-based, human. As to the method:
as §2
For western blotting, protein content is determined by the Bradford assay (Biorad, Vienna, Austria) and equal amounts of protein samples (2 μg/lane) are separated by standard SDS-PAGE using a Pharmacia Multiphore II unit. Size-fractionated proteins are then transferred to PVDF membranes by semi-dry transfer in a Pharmacia Multiphore II Novablot unit. Membranes are blocked in 5% dry milk in TBS-Tween (10 mM Tris, 150 mM NaCl, 0.05% Tween 20, pH 7.4). Membranes are incubated with the respective primary antibody (HSP-72, p-GSK-3β) for 16 h. Detection is accomplished by incubation with secondary, peroxidase-coupled antibodies (anti-mouse or anti-rabbit IgG, both Dako Cytomation, Calif., USA) and enhanced chemiluminescence (ECL) using the ECL western blotting analysis system (Renaissance, NEN-Life Science Products, Boston, Mass., USA).
(Immunoblotting shows a protein as a band on a membrane.)

Assay [4] has as its system human Met-5a cell line (mesothelial cells). As to the kind of experiment: LDH release into the supernatant after PD fluid exposure. The assay is classed as cell-based. Particulars: for LDH levels: icodextrin-based fluid. As to the method: as §1, §2
For LDH analyses, 200 μL aliquots of supernatants were removed after the described experimental setup and kept on −20° C. until analyzed within 48 h. Measurements were performed in duplicates with Sigma TOX-7 LDH Kit according to the manufacturer's instructions. LDH efflux was normalized for protein content.
In general terms: LDH leaks from cells whose membrane has failed.

Regarding `[Cl-].[Li+]` [LiCl, Lithium-chloride], the “number of viable cells (neutral red uptake)” value in assay [1] was “improved cell viability; also recorded: increased number of viable cells”. Moreover, in the assay with mesothelial cells, the cell structure entry is on record as “preserved cell structure”. Further, the “rate of dead cells” value with mesothelial cells (live-dead staining) is “reduced cell death rate; also recorded: reduced rate of dead cells”. The HSF-1 transcriptional activity result in assay [2] is given as “significantly increased”. In assay [3] (10 mM LiCl, each incubation setting (glucose-based or icodextrin-based PD fluid, 30 min or 1 h) vs respective untreated cells, FIG. 5), the “level of HSP-72” value was “significantly increased”. Further, the HSP-72 expression entry in assay [3] (glucose-based low pH PDF, LiCl 1, 2, 5, 10 mM vs untreated cells, 30 min exposure, 16 h recovery, FIG. 8) is on record as “increased only after administration of either 2 mM or 10 mM LiCl”. Besides, the HSP-72 protein expression entry in assay [3] (icodextrin-based PD fluid, LiCl 1, 2, 5, 10 mM, 30 min exposure, 16 h recovery, FIG. 8) is on record as “all the applied LiCl doses increased”. In assay [4] (10 mM LiCl added, all PD fluids observed, 1 h exposure, 16 h recovery, vs no LiCl, FIG. 2), the “LDH release (cell injury)” value was “decreased LDH release; also recorded: attenuated LDH release”. Besides, the “protection (LDH release)” value in assay [4] (10 mM LiCl, incubation with low pH glucose-based and icodextrin-based solutions, FIG. 2) was “most prominent protection”. In addition, the LDH levels entry in assay [4] (1 mM LiCl, FIG. 6) is recorded as “did not change significantly”; in assay [4] (2 mM LiCl, FIG. 6), “already decreased”; in assay [4] (5 mM LiCl, FIG. 6) it was “the decrease was even more significant”; in assay [4] (10 mM LiCl, FIG. 6), “the decrease was even more significant”. In assay [4] (low pH glucose-based (PDF) fluid, 10 mM LiCl, FIG. 6), the LDH release result is on record as “significantly reduced”. Besides, in assay [4] (low pH glucose-based (PDF) fluid, LiCl 1 mM to 5 mM, FIG. 6), the “release of LDH into the supernatant” value was “did not alter”.
